Measurements as given in paper PMC9299836 (eLife, 2022).

Molecular target: mGluR2 (Mus musculus, UniProt Q14BI2, A548F)
Experiment: Single-molecule FRET (SiMPull) of azi-CRD: population histograms and state occupancy;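 also: Cy3/Cy5-labelled receptor from HEK293T cell lysate captured on anti-FLAG surfaces, apparent FRET efficiency computed from donor and acceptor intensities with crosstalk correction, pooled into population histograms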
Details: for smFRET Histogram, Mean: N 3
[1] = azi-CRD, 5 μM modulator, 0 μM glutamate, fraction of total area
[2] = azi-CRD, 5 μM modulator, 15 μM glutamate, fraction of total area

mGluR2, sequence (Q14BI2 19-872 A548F): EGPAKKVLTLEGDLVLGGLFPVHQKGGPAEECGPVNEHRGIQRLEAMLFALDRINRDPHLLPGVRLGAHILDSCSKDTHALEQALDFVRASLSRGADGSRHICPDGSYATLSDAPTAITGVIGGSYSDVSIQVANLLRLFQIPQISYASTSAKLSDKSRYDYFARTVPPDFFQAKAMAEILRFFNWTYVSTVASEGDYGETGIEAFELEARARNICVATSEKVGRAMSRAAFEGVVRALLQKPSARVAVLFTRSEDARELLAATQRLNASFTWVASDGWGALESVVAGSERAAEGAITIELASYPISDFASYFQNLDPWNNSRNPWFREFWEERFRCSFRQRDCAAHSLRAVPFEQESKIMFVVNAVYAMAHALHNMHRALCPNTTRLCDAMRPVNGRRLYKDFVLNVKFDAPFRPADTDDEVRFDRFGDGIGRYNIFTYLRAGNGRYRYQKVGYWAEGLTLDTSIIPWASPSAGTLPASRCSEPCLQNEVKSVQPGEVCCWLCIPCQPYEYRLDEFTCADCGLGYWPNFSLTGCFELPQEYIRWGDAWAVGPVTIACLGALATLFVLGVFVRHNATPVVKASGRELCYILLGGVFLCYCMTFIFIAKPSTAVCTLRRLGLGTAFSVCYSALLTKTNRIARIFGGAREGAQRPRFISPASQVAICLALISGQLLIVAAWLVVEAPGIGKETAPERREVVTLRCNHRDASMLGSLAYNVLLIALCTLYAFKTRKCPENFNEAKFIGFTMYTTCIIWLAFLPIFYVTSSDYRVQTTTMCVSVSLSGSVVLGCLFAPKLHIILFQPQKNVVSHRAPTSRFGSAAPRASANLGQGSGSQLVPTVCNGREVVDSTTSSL

Substance: MNI-137
- smFRET Histogram, Mean (FRET 0, 0μM Glutamate + GPT/Pyruvate + 5μM MNI-137): 5.11E-04
- smFRET Histogram, Mean (FRET 0.02, 0μM Glutamate + GPT/Pyruvate + 5μM MNI-137): 6.64E-04
- smFRET Histogram, Mean (FRET 0.04, 0μM Glutamate + GPT/Pyruvate + 5μM MNI-137): 0.00218
- smFRET Histogram, Mean (FRET 0.06, 0μM Glutamate + GPT/Pyruvate + 5μM MNI-137): 0.00418
- smFRET Histogram, Mean (FRET 0.08, 0μM Glutamate + GPT/Pyruvate + 5μM MNI-137): 0.00801
- smFRET Histogram, Mean (FRET 0.1, 0μM Glutamate + GPT/Pyruvate + 5μM MNI-137): 0.01404
- smFRET Histogram, Mean (FRET 0.1, 15μM Glutamate + 5μM MNI-137): 0.0021
- smFRET Histogram, Mean (FRET 0.12, 0μM Glutamate + GPT/Pyruvate + 5μM MNI-137): 0.02347
- smFRET Histogram, Mean (FRET 0.12, 15μM Glutamate + 5μM MNI-137): 0.00321
- smFRET Histogram, Mean (FRET 0.14, 0μM Glutamate + GPT/Pyruvate + 5μM MNI-137): 0.03681
- smFRET Histogram, Mean (FRET 0.14, 15μM Glutamate + 5μM MNI-137): 0.00506
- smFRET Histogram, Mean (FRET 0.16, 0μM Glutamate + GPT/Pyruvate + 5μM MNI-137): 0.05131
- smFRET Histogram, Mean (FRET 0.16, 15μM Glutamate + 5μM MNI-137): 0.00784
- smFRET Histogram, Mean (FRET 0.18, 0μM Glutamate + GPT/Pyruvate + 5μM MNI-137): 0.06643
- smFRET Histogram, Mean (FRET 0.18, 15μM Glutamate + 5μM MNI-137): 0.01263
- smFRET Histogram, Mean (FRET 0.2, 0μM Glutamate + GPT/Pyruvate + 5μM MNI-137): 0.07988
- smFRET Histogram, Mean (FRET 0.2, 15μM Glutamate + 5μM MNI-137): 0.01781
- smFRET Histogram, Mean (FRET 0.22, 0μM Glutamate + GPT/Pyruvate + 5μM MNI-137): 0.08842
- smFRET Histogram, Mean (FRET 0.22, 15μM Glutamate + 5μM MNI-137): 0.02498
- smFRET Histogram, Mean (FRET 0.24, 0μM Glutamate + GPT/Pyruvate + 5μM MNI-137): 0.08863
- smFRET Histogram, Mean (FRET 0.24, 15μM Glutamate + 5μM MNI-137): 0.03347
- smFRET Histogram, Mean (FRET 0.26, 0μM Glutamate + GPT/Pyruvate + 5μM MNI-137): 0.08743
- smFRET Histogram, Mean (FRET 0.26, 15μM Glutamate + 5μM MNI-137): 0.04243
- smFRET Histogram, Mean (FRET 0.28, 0μM Glutamate + GPT/Pyruvate + 5μM MNI-137): 0.07891
- smFRET Histogram, Mean (FRET 0.28, 15μM Glutamate + 5μM MNI-137): 0.05374
- smFRET Histogram, Mean (FRET 0.3, 0μM Glutamate + GPT/Pyruvate + 5μM MNI-137): 0.06941
- smFRET Histogram, Mean (FRET 0.3, 15μM Glutamate + 5μM MNI-137): 0.06299
- smFRET Histogram, Mean (FRET 0.32, 0μM Glutamate + GPT/Pyruvate + 5μM MNI-137): 0.05758
- smFRET Histogram, Mean (FRET 0.32, 15μM Glutamate + 5μM MNI-137): 0.07069
- smFRET Histogram, Mean (FRET 0.34, 0μM Glutamate + GPT/Pyruvate + 5μM MNI-137): 0.04784
- smFRET Histogram, Mean (FRET 0.34, 15μM Glutamate + 5μM MNI-137): 0.0754
- smFRET Histogram, Mean (FRET 0.36, 0μM Glutamate + GPT/Pyruvate + 5μM MNI-137): 0.03831
- smFRET Histogram, Mean (FRET 0.36, 15μM Glutamate + 5μM MNI-137): 0.07714
- smFRET Histogram, Mean (FRET 0.38, 0μM Glutamate + GPT/Pyruvate + 5μM MNI-137): 0.03079
- smFRET Histogram, Mean (FRET 0.38, 15μM Glutamate + 5μM MNI-137): 0.07309
- smFRET Histogram, Mean (FRET 0.4, 0μM Glutamate + GPT/Pyruvate + 5μM MNI-137): 0.02474
- smFRET Histogram, Mean (FRET 0.4, 15μM Glutamate + 5μM MNI-137): 0.06696
- smFRET Histogram, Mean (FRET 0.42, 15μM Glutamate + 5μM MNI-137): 0.05663
- smFRET Histogram, Mean (FRET 0.44, 0μM Glutamate + GPT/Pyruvate + 5μM MNI-137): 0.01517
- smFRET Histogram, Mean (FRET 0.44, 15μM Glutamate + 5μM MNI-137): 0.0478
- smFRET Histogram, Mean (FRET 0.46, 0μM Glutamate + GPT/Pyruvate + 5μM MNI-137): 0.01122
- smFRET Histogram, Mean (FRET 0.46, 15μM Glutamate + 5μM MNI-137): 0.03818
- smFRET Histogram, Mean (FRET 0.48, 0μM Glutamate + GPT/Pyruvate + 5μM MNI-137): 0.00878
- smFRET Histogram, Mean (FRET 0.48, 15μM Glutamate + 5μM MNI-137): 0.02974
- smFRET Histogram, Mean (FRET 0.5, 0μM Glutamate + GPT/Pyruvate + 5μM MNI-137): 0.0069
- smFRET Histogram, Mean (FRET 0.5, 15μM Glutamate + 5μM MNI-137): 0.02283
- smFRET Histogram, Mean (FRET 0.52, 0μM Glutamate + GPT/Pyruvate + 5μM MNI-137): 0.00522
- smFRET Histogram, Mean (FRET 0.52, 15μM Glutamate + 5μM MNI-137): 0.01756
- smFRET Histogram, Mean (FRET 0.54, 0μM Glutamate + GPT/Pyruvate + 5μM MNI-137): 0.0038
- smFRET Histogram, Mean (FRET 0.54, 15μM Glutamate + 5μM MNI-137): 0.01395
- smFRET Histogram, Mean (FRET 0.56, 0μM Glutamate + GPT/Pyruvate + 5μM MNI-137): 0.00307
- smFRET Histogram, Mean (FRET 0.56, 15μM Glutamate + 5μM MNI-137): 0.01177
- smFRET Histogram, Mean (FRET 0.58, 0μM Glutamate + GPT/Pyruvate + 5μM MNI-137): 0.00238
- smFRET Histogram, Mean (FRET 0.58, 15μM Glutamate + 5μM MNI-137): 0.0101
- smFRET Histogram, Mean (FRET 0.6, 0μM Glutamate + GPT/Pyruvate + 5μM MNI-137): 0.00226
- smFRET Histogram, Mean (FRET 0.6, 15μM Glutamate + 5μM MNI-137): 0.0089
- smFRET Histogram, Mean (FRET 0.62, 15μM Glutamate + 5μM MNI-137): 0.0083
- smFRET Histogram, Mean (FRET 0.64, 0μM Glutamate + GPT/Pyruvate + 5μM MNI-137): 0.00164
- smFRET Histogram, Mean (FRET 0.64, 15μM Glutamate + 5μM MNI-137): 0.00824
- smFRET Histogram, Mean (FRET 0.66, 0μM Glutamate + GPT/Pyruvate + 5μM MNI-137): 0.00119
- smFRET Histogram, Mean (FRET 0.66, 15μM Glutamate + 5μM MNI-137): 0.00778
- smFRET Histogram, Mean (FRET 0.68, 0μM Glutamate + GPT/Pyruvate + 5μM MNI-137): 0.00129
- smFRET Histogram, Mean (FRET 0.68, 15μM Glutamate + 5μM MNI-137): 0.00775
- smFRET Histogram, Mean (FRET 0.7, 0μM Glutamate + GPT/Pyruvate + 5μM MNI-137): 0.00106
- smFRET Histogram, Mean (FRET 0.7, 15μM Glutamate + 5μM MNI-137): 0.00734
- smFRET Histogram, Mean (FRET 0.72, 0μM Glutamate + GPT/Pyruvate + 5μM MNI-137): 9.06E-04
- smFRET Histogram, Mean (FRET 0.72, 15μM Glutamate + 5μM MNI-137): 0.00691
- smFRET Histogram, Mean (FRET 0.74, 0μM Glutamate + GPT/Pyruvate + 5μM MNI-137): 8.03E-04
- smFRET Histogram, Mean (FRET 0.74, 15μM Glutamate + 5μM MNI-137): 0.00635
- smFRET Histogram, Mean (FRET 0.76, 0μM Glutamate + GPT/Pyruvate + 5μM MNI-137): 9.58E-04
- smFRET Histogram, Mean (FRET 0.76, 15μM Glutamate + 5μM MNI-137): 0.00599
- smFRET Histogram, Mean (FRET 0.78, 0μM Glutamate + GPT/Pyruvate + 5μM MNI-137): 9.38E-04
- smFRET Histogram, Mean (FRET 0.78, 15μM Glutamate + 5μM MNI-137): 0.00583
- smFRET Histogram, Mean (FRET 0.8, 0μM Glutamate + GPT/Pyruvate + 5μM MNI-137): 8.49E-04
- smFRET Histogram, Mean (FRET 0.8, 15μM Glutamate + 5μM MNI-137): 0.00559
- smFRET Histogram, Mean (FRET 0.82, 0μM Glutamate + GPT/Pyruvate + 5μM MNI-137): 9.70E-04
- smFRET Histogram, Mean (FRET 0.82, 15μM Glutamate + 5μM MNI-137): 0.00496
- smFRET Histogram, Mean (FRET 0.84, 0μM Glutamate + GPT/Pyruvate + 5μM MNI-137): 0.00112
- smFRET Histogram, Mean (FRET 0.84, 15μM Glutamate + 5μM MNI-137): 0.00504
- smFRET Histogram, Mean (FRET 0.86, 0μM Glutamate + GPT/Pyruvate + 5μM MNI-137): 0.00114
- smFRET Histogram, Mean (FRET 0.86, 15μM Glutamate + 5μM MNI-137): 0.00467
- smFRET Histogram, Mean (FRET 0.88, 0μM Glutamate + GPT/Pyruvate + 5μM MNI-137): 0.0011
- smFRET Histogram, Mean (FRET 0.9, 0μM Glutamate + GPT/Pyruvate + 5μM MNI-137): 0.0013
- smFRET Histogram, Mean (FRET 0.9, 15μM Glutamate + 5μM MNI-137): 0.00455
- smFRET Histogram, Mean (FRET 0.92, 0μM Glutamate + GPT/Pyruvate + 5μM MNI-137): 0.0011
- smFRET Histogram, Mean (FRET 0.92, 15μM Glutamate + 5μM MNI-137): 0.00382
- smFRET Histogram, Mean (FRET 0.94, 0μM Glutamate + GPT/Pyruvate + 5μM MNI-137): 8.72E-04
- smFRET Histogram, Mean (FRET 0.96, 0μM Glutamate + GPT/Pyruvate + 5μM MNI-137): 0.001
- smFRET Histogram, Mean (FRET 0.98, 0μM Glutamate + GPT/Pyruvate + 5μM MNI-137): 6.96E-04
- smFRET Histogram, Mean (FRET 1, 0μM Glutamate + GPT/Pyruvate + 5μM MNI-137): 4.51E-04
- smFRET Histogram, Mean (FRET 1.02, 0μM Glutamate + GPT/Pyruvate + 5μM MNI-137): 2.62E-04
- smFRET Histogram, Mean (FRET 1.04, 0μM Glutamate + GPT/Pyruvate + 5μM MNI-137): 1.50E-04
- smFRET Histogram, Mean (FRET 1.06, 0μM Glutamate + GPT/Pyruvate + 5μM MNI-137): 2.86E-05
- smFRET Histogram, Mean (FRET 1.08, 0μM Glutamate + GPT/Pyruvate + 5μM MNI-137): 2.33E-05
- smFRET Histogram, Mean (FRET 1.1, 0μM Glutamate + GPT/Pyruvate + 5μM MNI-137): 8.10E-05
- smFRET Histogram, Mean (FRET 1.12, 0μM Glutamate + GPT/Pyruvate + 5μM MNI-137): 1.94E-05
- smFRET Histogram, Mean (FRET 1.14, 0μM Glutamate + GPT/Pyruvate + 5μM MNI-137): 1.94E-05
- smFRET Histogram, Mean (FRET 1.16, 0μM Glutamate + GPT/Pyruvate + 5μM MNI-137): 9.97E-06
- smFRET Histogram, Mean (FRET 1.18, 0μM Glutamate + GPT/Pyruvate + 5μM MNI-137): 0
- smFRET Histogram, Mean (FRET 1.2, 0μM Glutamate + GPT/Pyruvate + 5μM MNI-137): 0
- Mean occupancy, state 1 (inactive, FRET 0.24) [1]: 0.7486
- Mean occupancy, state 2 (intermediate 1, FRET 0.38) [1]: 0.222
- Mean occupancy, state 3 (intermediate 2, FRET 0.70) [1]: 0.02038
- Mean occupancy, state 4 (active, FRET 0.87) [1]: 0.00903
- Mean occupancy, state 1 (inactive, FRET 0.24) [2]: 0.1039
- Mean occupancy, state 2 (intermediate 1, FRET 0.38) [2]: 0.7494
- Mean occupancy, state 3 (intermediate 2, FRET 0.70) [2]: 0.1272
